Laboratory results as given in paper PMC10539361, “Allosteric modulation of the fish taste receptor type 1 (T1R) family by the extracellular chloride ion” (Scientific Reports, 2023).
Positions count from the first letter of the chain named.

Tests used:
[1] = target: T1, hT1R2/hT1R3 (Homo sapiens, UniProt Q7RTX0+Q8TE23); test: Ca2+ mobilization dose-response assay, stable cells expressing hT1R2/hT1R3 with G16gust44; format: cell-based; details: for sensitivity in high (141.4 mM) Cl- buffer vs 10 mM Cl- buffer: 10 mM vs 141.4 mM Cl- buffer
T1 construct: expressed in transfected cells
T1 sequence (Q8TE23 20-839): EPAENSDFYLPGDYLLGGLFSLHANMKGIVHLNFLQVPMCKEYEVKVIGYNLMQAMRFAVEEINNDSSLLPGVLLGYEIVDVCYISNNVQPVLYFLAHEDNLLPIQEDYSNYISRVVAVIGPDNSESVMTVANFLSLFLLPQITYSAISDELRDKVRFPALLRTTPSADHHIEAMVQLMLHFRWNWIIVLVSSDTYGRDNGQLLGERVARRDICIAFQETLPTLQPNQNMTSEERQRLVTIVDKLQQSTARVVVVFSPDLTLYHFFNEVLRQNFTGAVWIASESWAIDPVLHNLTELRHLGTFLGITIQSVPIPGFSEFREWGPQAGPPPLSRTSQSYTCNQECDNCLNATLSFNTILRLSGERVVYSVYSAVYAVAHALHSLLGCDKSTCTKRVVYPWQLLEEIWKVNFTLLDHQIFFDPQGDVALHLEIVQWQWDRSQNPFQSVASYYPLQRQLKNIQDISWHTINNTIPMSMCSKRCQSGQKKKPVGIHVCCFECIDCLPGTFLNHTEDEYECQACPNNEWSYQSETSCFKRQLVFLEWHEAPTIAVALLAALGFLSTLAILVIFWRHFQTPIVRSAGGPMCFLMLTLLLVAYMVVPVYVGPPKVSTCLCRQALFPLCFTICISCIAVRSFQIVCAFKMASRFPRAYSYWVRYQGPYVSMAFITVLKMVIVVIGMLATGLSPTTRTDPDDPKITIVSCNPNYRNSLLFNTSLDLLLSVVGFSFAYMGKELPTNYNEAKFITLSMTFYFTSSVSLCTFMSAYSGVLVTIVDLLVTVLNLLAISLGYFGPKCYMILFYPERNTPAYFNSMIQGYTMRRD
T1 sequence (Q7RTX0 21-852): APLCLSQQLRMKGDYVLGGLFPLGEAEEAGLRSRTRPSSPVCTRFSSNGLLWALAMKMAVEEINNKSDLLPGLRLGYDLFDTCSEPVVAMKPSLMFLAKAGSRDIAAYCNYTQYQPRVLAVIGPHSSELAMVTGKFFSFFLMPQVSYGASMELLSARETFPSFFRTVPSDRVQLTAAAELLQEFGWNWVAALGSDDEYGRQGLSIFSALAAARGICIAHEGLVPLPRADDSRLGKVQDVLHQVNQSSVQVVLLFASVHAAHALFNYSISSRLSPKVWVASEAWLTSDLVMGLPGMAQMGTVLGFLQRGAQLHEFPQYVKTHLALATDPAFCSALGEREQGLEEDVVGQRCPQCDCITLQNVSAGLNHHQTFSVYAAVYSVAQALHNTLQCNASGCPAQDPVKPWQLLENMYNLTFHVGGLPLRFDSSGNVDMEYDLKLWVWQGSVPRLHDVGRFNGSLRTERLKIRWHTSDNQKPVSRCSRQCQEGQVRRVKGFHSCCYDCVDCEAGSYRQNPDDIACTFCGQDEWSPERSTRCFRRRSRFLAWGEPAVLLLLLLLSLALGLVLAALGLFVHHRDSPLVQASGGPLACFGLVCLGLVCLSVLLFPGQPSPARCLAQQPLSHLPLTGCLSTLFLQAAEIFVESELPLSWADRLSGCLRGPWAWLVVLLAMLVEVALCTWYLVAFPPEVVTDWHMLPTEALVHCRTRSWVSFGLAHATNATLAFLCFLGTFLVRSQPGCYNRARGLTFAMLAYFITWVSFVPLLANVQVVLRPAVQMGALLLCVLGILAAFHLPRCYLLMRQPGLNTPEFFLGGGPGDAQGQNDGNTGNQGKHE
Method: (§1) The buffers with lower Cl^− were prepared by progressively replacing NaCl, KCl, CaCl2 and MgCl2 in the buffer with gluconate equivalents[20]. The pH was adjusted to 7.4 with NaOH. Ligands were diluted with the assay buffers at the desired concentrations.
Measurements of the responses of the cells by cell-based assay based on the intracellular Ca^2+ mobilization were carried out as described previously with some modifications[20],[34],[46],[47]. […] The cells were seeded in 96-well plates (clear-bottomed CellBIND surface plate, Corning, Glendale, AZ, USA) coated with ε-poly-L-lysine (Cosmo Bio, Tokyo, Japan) at approximately 70,000 cells per well. After 20 h, the medium was removed and replaced with high Cl^− buffer. After 3 h 30 min incubation at 27 °C, cells were loaded with 5 µM calcium-indicator dye Fluo-8 AM (AAT Bioquest, Sunnyvale, CA, USA) diluted in high Cl^− buffer. After incubation for 30 min at 27 °C, the cells were washed with buffers containing appropriate concentrations of Cl^−. The cellular assay was initiated after 3–5 min of resting and was completed within 5 min. The measurements were made using FlexStation 3 (Molecular Devices, Sunnyvale, CA, USA) at 27 °C. Fluorescence changes (i.e., excitation at 485 nm and emission at 525 nm with a cutoff at 515 nm) were monitored at 2 s intervals. A 100-µL aliquot of assay buffer supplemented with 2 × ligands was added at 20 s, and scanning was continued for an additional 40 s. The response of each well was determined as ∆RFU (delta relative fluorescent units), which was calculated as (maximum fluorescent value)—(minimum fluorescent value). […] Such normalized data from more than three independent experiments are reported as the mean ± standard error of the mean (SEM). Dose‒response fitting curves were calculated by Prism 9 (GraphPad Software, San Diego, CA) using nonlinear regression (log(agonist) vs. response—variable slope), based on the integrated data from the several independent experiments.

[2] = target: T2, mfT1R2a/mfT1R3 (Oryzias latipes, UniProt Q2MHK2+Q2MHK5); test: Effect of anions, cations and osmotic pressure on cellular responses, cells in 10 mM Cl- buffer, mfT1R2a/mfT1R3; format: cell-based, medaka fish
T2 sequence (Q2MHK5 20-819): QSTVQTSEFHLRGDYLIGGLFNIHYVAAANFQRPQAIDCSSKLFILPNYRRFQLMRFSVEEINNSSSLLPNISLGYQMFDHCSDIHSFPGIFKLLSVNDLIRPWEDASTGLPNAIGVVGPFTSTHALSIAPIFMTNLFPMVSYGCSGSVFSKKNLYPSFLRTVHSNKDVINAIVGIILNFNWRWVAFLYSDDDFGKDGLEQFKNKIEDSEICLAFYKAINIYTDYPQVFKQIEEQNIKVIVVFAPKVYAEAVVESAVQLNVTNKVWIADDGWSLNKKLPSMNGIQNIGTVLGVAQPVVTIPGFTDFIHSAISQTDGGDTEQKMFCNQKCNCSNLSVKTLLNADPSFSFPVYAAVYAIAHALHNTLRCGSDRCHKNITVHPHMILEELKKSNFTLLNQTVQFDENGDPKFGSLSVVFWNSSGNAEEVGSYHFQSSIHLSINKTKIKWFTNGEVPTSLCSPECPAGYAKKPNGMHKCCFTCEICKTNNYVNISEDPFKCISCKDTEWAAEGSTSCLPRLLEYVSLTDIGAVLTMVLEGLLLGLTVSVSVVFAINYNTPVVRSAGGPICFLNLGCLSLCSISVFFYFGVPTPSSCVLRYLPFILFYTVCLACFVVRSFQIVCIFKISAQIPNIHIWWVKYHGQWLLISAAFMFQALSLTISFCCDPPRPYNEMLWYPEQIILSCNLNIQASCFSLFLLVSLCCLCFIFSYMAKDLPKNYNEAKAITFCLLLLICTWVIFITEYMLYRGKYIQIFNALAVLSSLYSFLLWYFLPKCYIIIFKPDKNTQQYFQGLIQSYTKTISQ
T2 sequence (Q2MHK2 20-853): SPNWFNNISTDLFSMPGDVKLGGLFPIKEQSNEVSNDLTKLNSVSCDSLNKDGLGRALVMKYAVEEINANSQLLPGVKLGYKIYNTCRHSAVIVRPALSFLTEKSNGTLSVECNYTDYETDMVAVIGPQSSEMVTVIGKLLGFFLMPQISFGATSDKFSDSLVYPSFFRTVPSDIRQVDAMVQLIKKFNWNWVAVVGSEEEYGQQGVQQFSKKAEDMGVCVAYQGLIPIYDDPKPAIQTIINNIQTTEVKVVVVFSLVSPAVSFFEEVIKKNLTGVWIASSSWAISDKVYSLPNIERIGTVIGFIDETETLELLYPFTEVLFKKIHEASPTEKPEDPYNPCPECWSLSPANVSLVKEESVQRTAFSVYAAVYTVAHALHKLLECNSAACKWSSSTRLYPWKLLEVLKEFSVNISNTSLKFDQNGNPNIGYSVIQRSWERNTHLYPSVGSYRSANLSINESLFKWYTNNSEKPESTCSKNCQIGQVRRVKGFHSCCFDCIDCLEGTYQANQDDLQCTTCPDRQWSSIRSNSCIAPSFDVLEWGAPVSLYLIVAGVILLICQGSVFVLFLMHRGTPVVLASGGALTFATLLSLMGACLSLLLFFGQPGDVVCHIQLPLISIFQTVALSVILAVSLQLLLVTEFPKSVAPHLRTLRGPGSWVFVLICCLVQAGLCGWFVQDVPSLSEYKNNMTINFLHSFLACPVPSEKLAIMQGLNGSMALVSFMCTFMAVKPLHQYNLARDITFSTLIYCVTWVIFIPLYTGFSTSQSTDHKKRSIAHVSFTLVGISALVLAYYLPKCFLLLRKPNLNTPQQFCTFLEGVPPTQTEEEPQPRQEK
Method: Cells were seeded in 96-well plates coated with ε-poly-L-lysine at approximately 70,000 cells per well. […] Fluorescence changes were monitored at 2 s intervals, as described above. […] Three independent experiments were conducted for each receptor, and representative results are shown as the mean ± SEM (n = 3 replicates). Statistical tests were conducted using KyPlot version 6.0 (KyensLab Inc., Tokyo, Japan). Statistical significance was set at p < 0.05.

[3] = target: T3, hT1R2/hT1R3 T102E (Homo sapiens, UniProt Q7RTX0+Q8TE23, T102E); test: Ca2+ mobilization dose-response assay, site X mutant hT1R2/hT1R3 T102E; details: EC50, [Cl-]o=10 mM; unit inferred
T3 sequence (Q8TE23 20-839): T1 sequence (Q8TE23 20-839)
T3 sequence (Q7RTX0 21-852 T102E): T1 sequence (Q7RTX0 21-852) with T82E
Method: as §1
Measurements of the responses of the cells by cell-based assay based on the intracellular Ca^2+ mobilization were carried out as described previously with some modifications[20],[34],[46],[47]. Cell lines stably expressing T1R2, T1R3 and chimeric G-protein α-subunit, G16gust44[48], were constructed using the Flp-In pcDNA5/FRT complete system (Thermo Fisher Scientific, Waltham, MA, USA) described in our previous studies[34],[46]. […] Fluorescence changes (i.e., excitation at 485 nm and emission at 525 nm with a cutoff at 515 nm) were monitored at 2 s intervals. […] The response of each well was determined as ∆RFU (delta relative fluorescent units), which was calculated as (maximum fluorescent value)—(minimum fluorescent value). […] Dose‒response fitting curves were calculated by Prism 9 (GraphPad Software, San Diego, CA) using nonlinear regression (log(agonist) vs. response—variable slope), based on the integrated data from the several independent experiments.

| sensitivity in high (141.4 mM) Cl- buffer vs 10 mM Cl- buffer [1] | additional anion concentration needed to significantly increase the response intensity to L-Gln ([2]; added to 10 mM Cl- buffer with 200 µM L-Gln) [mM] | response to fixed concentration of L-Gln on coapplication ([2]; coapplied with 200 µM L-Gln, cells in 10 mM Cl- buffer, final [Cl-]o up to 60 mM) | cellular response to the salt alone ([2]; without agonist, cells in 10 mM Cl- buffer) | EC50 ([1]; [Cl-]o=10 mM, unit inferred) [µM] | EC50 [3] [µM] | SMILES |
| --- | --- | --- | --- | --- | --- | --- |
| comparable | – | – | – | – | – | N[C@H](Cc1c[nH]c2ccccc12)C(=O)O [D-tryptophan] |
| – | 5 | enhanced | did not elicit | – | – | [Br-].[Na+] [NaBr] |
| comparable | – | – | – | 92.5 | 169 | OC[C@H]1O[C@H](O[C@]2(CCl)O[C@H](CCl)[C@@H](O)[C@@H]2O)[C@H](O)[C@@H](O)[C@H]1Cl [sucralose, Sucralose] |
